Laboratory results from patent US20240158446A1, “CYCLIC COMPOUND HAVING SELECTIVE INHIBITORY ACTION ON KRAS OVER HRAS AND NRAS” (CHUGAI SEIYAKU KABUSHIKI KAISHA, priority 2021, published 2024).
Read-outs that look alike come from different tables or passages of the source. Where a SMILES comes first, the peptide text is derived from it. Bridges are numbered along the chain shown (N, C = ends). [ ]: non-standard residue; d: D form. The star is where a group is joined. hPhe(3-Cl-4-CF3) = N[C@@H](CCc1ccc(C(F)(F)F)c(Cl)c1)C(=O)O; NPrPhe(4-CF3) = CCCN[C@@H](Cc1ccc(C(F)(F)F)cc1)C(=O)O; NMeGly(cPent) = CN[C@H](C(=O)O)C1CCCC1; NMeD = CN[C@@H](CC(=O)O)C(=O)O; NMeL = CN[C@@H](CC(C)C)C(=O)O; Morpholide = C1CN(*)CCO1; Ac5c = NC1(C(=O)O)CCCC1; Abu = CC[C@H](N)C(=O)O; NEtG = CCNCC(=O)O; Sar = CNCC(=O)O

Assays:
[1] = molecular target: GDP-bound NRAS wild-type protein (Homo sapiens, UniProt P01111); assay: Binding to NRAS by surface plasmon resonance (SPR), Single Cycle Kinetics; details: for NRAS/KRAS (ratio of KD value with respect to GDP-bound NRAS wild-type protein to KD value with respect to KRAS): SPR KD ratio NRAS/KRAS, class symbols; for NRAS/KRAS (ratio of KD value for NRAS to KD value for KRAS): SPR, GDP-bound NRAS wild-type protein vs GDP-bound KRAS wild-type protein
[2] = molecular target: GDP-bound KRAS wild-type protein (Homo sapiens, UniProt P01116); assay: Binding to KRAS by surface plasmon resonance (SPR), Single Cycle Kinetics; details: GDP-bound KRAS wild-type protein, read-out: KRAS KD
[3] = molecular target: GDP-bound HRAS wild-type protein (Homo sapiens, UniProt P01112); assay: Binding to HRAS by surface plasmon resonance (SPR), Single Cycle Kinetics; details: for HRAS/KRAS (ratio of KD value with respect to GDP-bound HRAS wild-type protein to KD value with respect to KRAS): SPR KD ratio HRAS/KRAS, class symbols; for HRAS/KRAS (ratio of KD value for HRAS to KD value for KRAS): SPR, GDP-bound HRAS wild-type protein vs GDP-bound KRAS wild-type protein
[4] = system: human lung cancer strain NCI-H441;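 also: cell proliferation inhibition after four days measured by CellTiter-Glo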
[5] = SPR Single Cycle Kinetics, 1:1 binding model

Chain of GDP-bound KRAS wild-type protein (P01116 whole entry): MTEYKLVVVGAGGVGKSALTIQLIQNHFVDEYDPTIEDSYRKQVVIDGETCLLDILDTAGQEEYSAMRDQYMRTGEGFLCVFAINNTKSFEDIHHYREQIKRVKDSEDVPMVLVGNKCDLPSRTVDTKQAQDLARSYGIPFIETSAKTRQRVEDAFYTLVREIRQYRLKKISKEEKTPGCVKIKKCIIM
Chain of GDP-bound HRAS wild-type protein (P01112 whole entry): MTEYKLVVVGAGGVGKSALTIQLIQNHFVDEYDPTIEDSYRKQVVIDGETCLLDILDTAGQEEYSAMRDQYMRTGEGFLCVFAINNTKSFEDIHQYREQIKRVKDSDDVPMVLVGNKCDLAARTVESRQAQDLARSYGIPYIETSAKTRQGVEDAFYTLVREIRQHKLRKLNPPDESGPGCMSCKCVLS
Chain of GDP-bound NRAS wild-type protein (P01111 whole entry): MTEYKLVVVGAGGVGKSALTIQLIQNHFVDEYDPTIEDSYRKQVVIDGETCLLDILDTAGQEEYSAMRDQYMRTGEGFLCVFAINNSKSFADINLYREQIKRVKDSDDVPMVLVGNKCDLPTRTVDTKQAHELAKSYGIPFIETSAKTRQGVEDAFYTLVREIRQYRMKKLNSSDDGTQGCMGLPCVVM

| Kd [2, 5] | IC50 [4] | Kd ([2]; SPR, Single Cycle Kinetics) | Kd ([2]; SPR, Single Cycle Kinetics, 1:1 binding model) | SMILES | NRAS/KRAS (ratio of KD value with respect to GDP-bound NRAS wild-type protein to KD value with respect to KRAS) [1] | HRAS/KRAS (ratio of KD value with respect to GDP-bound HRAS wild-type protein to KD value with respect to KRAS) [3] | NRAS/KRAS (ratio of KD value for NRAS to KD value for KRAS) [1] | HRAS/KRAS (ratio of KD value for HRAS to KD value for KRAS) [3] | NRAS/KRAS (ratio of KD value for NRAS to KD value for KRAS) ([1]; KD ratio class) | HRAS/KRAS (ratio of KD value for HRAS to KD value for KRAS) ([3]; KD ratio class) |
| --- | --- | --- | --- | --- | --- | --- | --- | --- | --- | --- |
| 0.39 nM | 8.9 nM | – | – | CCC[C@H]1C(=O)N[C@@H]([C@@H](C)CC)C(=O)N(C2CC2)CC(=O)N(C)[C@H]2C/C=C\CCN(C2=O)[C@@H](Cc2ccc(C)cc2)C(=O)N(C)CC(=O)N[C@@H](CCc2cc(F)c(C(F)(F)F)c(F)c2)C(=O)N2C[C@H](OC(C)C)C[C@H]2C(=O)NC2(CC(C)(C)C2)C(=O)N(C)[C@@H](C2CCCC2)C(=O)N(C)[C@H](C(=O)N(C)C)CC(=O)N1C [PP2570] | A (a compound having 10 or more and less than 20 is denoted as A) | A (a compound having 10 or more and less than 20 is denoted as A) | – | – | – | – |
| – | 4.1 nM | 0.045 nM | – | CCC[C@H]1C(=O)N[C@@H]([C@@H](C)CC)C(=O)N2CCC[C@H]2C(=O)N(C)[C@H]2C/C=C\CCN(C2=O)[C@@H](Cc2ccc(C)cc2)C(=O)N(C)CC(=O)N[C@@H](CCc2ccc(C(F)(F)F)c(OC)c2)C(=O)N2C[C@@H](C)C[C@H]2C(=O)N(C)C2(CCC2)C(=O)N(C)[C@@H](C2CCCC2)C(=O)N(C)[C@H](C(=O)N(C)C)CC(=O)N1C [PP2368] | – | – | A (a compound having 10 or more and less than 20 is denoted as A) | A (a compound having 10 or more and less than 20 is denoted as A) | – | – |
| – | 193 nM | 0.14 nM | – | CC[C@H](C)[C@@H]1NC(=O)[C@H](CC)N(C)C(=O)C[C@@H](C(=O)N(C)C)N(C)C(=O)[C@H](C2CCCC2)N(C)C(=O)C2(CCC2)NC(=O)[C@@H]2CCCCN2C(=O)[C@H](CCc2cc(F)c(C(F)(F)F)c(F)c2)NC(=O)CN(C)C(=O)[C@H](Cc2ccc(C(F)(F)F)cc2)N2CC/C=C\C[C@@H](C2=O)N(C)C(=O)CN(C)C1=O [PP1136, (2S,8S,15S,21S,24S,28S,31S,37S,39Z)-21-cyclopentyl-8-[2-[3,5-difluoro-4-(trifluoromethyl)phenyl]ethyl]-28-ethyl-N,N,4,20,23,27,33,36-octamethyl-31-[(1S)-1-methylpropyl]-3,6,9,16,19,22,26,29,32,35,43-undecaoxo-2-[[4-(trifluoromethyl)phenyl]methyl]spiro[1,4,7,10,17,20,23,27,30,33,36-undecazatricyclo[35.5.1.0^10,1^5]tritetracont-39-ene-18,1′-cyclobutane]-24-carboxamide] | – | – | A (a compound having 10 or more and less than 20 is denoted as A) | A (a compound having 10 or more and less than 20 is denoted as A) | – | – |
| – | 39.4 nM | 0.51 nM | – | CCOC[C@H]1C(=O)N[C@@H]([C@@H](C)CC)C(=O)N(C)CC(=O)N(C)[C@H]2C/C=C\CCN(C2=O)[C@@H](Cc2ccc(C)cc2)C(=O)N(C)CC(=O)N[C@@H](CCc2ccc(C(F)(F)F)c(Cl)c2)C(=O)N2C[C@@H](C)C[C@H]2C(=O)NC2(CC(C)(C)C2)C(=O)N(C)[C@@H](C2CCCC2)C(=O)N(C)[C@H](C(=O)N(CC)CC)CC(=O)N1C [PP2465] | – | – | AA (a compound having 20 or more is denoted as AA) | A (a compound having 10 or more and less than 20 is denoted as A) | – | – |
| – | 2.5 nM | 0.02 nM | – | CCC[C@H]1C(=O)N[C@@H]([C@@H](C)CC)C(=O)N(C)CC(=O)N(C)[C@H]2C/C=C\CCN(C2=O)[C@@H](Cc2ccc(C(F)(F)F)cc2)C(=O)N(C)CC(=O)N[C@@H](CCc2ccc(C(F)(F)F)c(OC)c2)C(=O)N2C[C@@H](C)C[C@H]2C(=O)N(C)C2(CCC2)C(=O)N(C)[C@@H](C2CCCC2)C(=O)N(C)[C@H](C(=O)N(C)C)CC(=O)N1C [PP2358] | – | – | A (a compound having 10 or more and less than 20 is denoted as A) | B (a compound having 3 or more and less than 10 is denoted as B) | – | – |
| 4.8 nM | 149 nM | – | – | CCCN1C(=O)CN(C)C(=O)CN(CC)C(=O)[C@H](CC)NC(=O)[C@H](CC(C)C)N(C)C(=O)C[C@@H](C(=O)N2CCOCC2)N(C)C(=O)[C@H](C2CCCC2)N(C)C(=O)C2(CCCC2)NC(=O)[C@@H]2CCCN2C(=O)[C@H](CCc2ccc(C(F)(F)F)c(Cl)c2)NC(=O)CN(C)C(=O)[C@@H]1Cc1ccc(C(F)(F)F)cc1 [PP0290] ([NMeL][Abu][NEtG][Sar][NPrPhe(4-CF3)][Sar][hPhe(3-Cl-4-CF3)]P[Ac5c][NMeGly(cPent)][NMeD]-Morpholide; lactam N-11) | – | – | B (a compound having 3 or more and less than 10 is denoted as B) | C (A compound having a KD ratio of 0.1 or more and less than 3 is denoted as C) | – | – |
| 0.11 nM | 6.3 nM | – | – | CCCOC[C@H]1C(=O)N[C@@H]([C@@H](C)CC)C(=O)N(C)CC(=O)N(C)[C@H]2C/C=C\CCN(C2=O)[C@@H](Cc2ccc(C)cc2)C(=O)N(C)CC(=O)N[C@@H](CCc2ccc(C(F)(F)F)c(OC)c2)C(=O)N2C[C@H](OCC)C[C@H]2C(=O)NC2(CC(C)(C)C2)C(=O)N(C)[C@@H](CC(C)(C)C)C(=O)N(C)[C@H](C(=O)N(C)C)CC(=O)N1C [PP2712] | A (a compound having 10 or more and less than 20 is denoted as A) | B (a compound having 3 or more and less than 10 is denoted as B) | – | – | – | – |
| – | 96.7 nM | 0.28 nM | – | CC[C@H](C)[C@@H]1NC(=O)[C@H](COC)N(C)C(=O)C[C@@H](C(=O)N(C)C)N(C)C(=O)[C@H](C2CCCC2)N(C)C(=O)C2(CC(C)(C)C2)NC(=O)[C@@H]2C[C@H](C)CN2C(=O)[C@H](CCc2ccc(C(F)(F)F)c(OC)c2)NC(=O)CN(C)C(=O)[C@H](Cc2ccc(C)cc2)N2CC/C=C\C[C@@H](C2=O)N(C)C(=O)[C@@H]2C[C@H](OC)CN2C1=O [PP2390] | – | – | A (a compound having 10 or more and less than 20 is denoted as A) | B (a compound having 3 or more and less than 10 is denoted as B) | – | – |
| – | 31.9 nM | 0.48 nM | – | CC[C@H](C)[C@@H]1NC(=O)[C@H](CC(C)C)N(C)C(=O)C[C@@H](C(=O)N(C)C)N(C)C(=O)[C@H](C2CCCC2)N(C)C(=O)C2(CC(C)(C)C2)NC(=O)[C@@H]2C[C@H](C)CN2C(=O)[C@H](CCc2ccc(C(F)(F)F)c(OC)c2)NC(=O)CN(C)C(=O)[C@H](Cc2ccc(C)cc2)N2CC/C=C\C[C@@H](C2=O)N(C)C(=O)[C@@H]2CCCN2C1=O [PP2409] | – | – | A (a compound having 10 or more and less than 20 is denoted as A) | B (a compound having 3 or more and less than 10 is denoted as B) | – | – |
| – | 25.4 nM | – | 0.16 nM | CCO[C@@H]1C[C@H]2C(=O)NC3(CCC3)C(=O)N(C)[C@@H](C(CC)CC)C(=O)N(C)[C@H](C(=O)N(C)C)CC(=O)N(C)[C@@H](COC)C(=O)N[C@@H]([C@@H](C)CC)C(=O)N(C)CC(=O)N(C)[C@H]3C/C=C\CCN(C3=O)[C@@H](Cc3ccc(C(F)(F)F)cc3)C(=O)N(C)CC(=O)N[C@@H](CCc3cc(F)c(C(F)(F)F)c(F)c3)C(=O)N2C1 [PP1205] | – | – | – | – | AA (a compound having 20 or more is denoted as AA) | A (a compound having 10 or more and less than 20 is denoted as A) |
| 0.85 nM | 68.5 nM | – | – | CCC(CC)[C@H]1C(=O)N(C)[C@H](C(=O)N(C)C)CC(=O)N(C)[C@@H](COC)C(=O)N[C@@H]([C@@H](C)CC)C(=O)N(C)CC(=O)N(C)[C@H]2C/C=C\CCN(C2=O)[C@@H](Cc2ccc(C(F)(F)F)cc2)C(=O)N(C)CC(=O)N[C@@H](CCc2ccc(Cl)c(Cl)c2)C(=O)N2C[C@H](OC3CCCC3)C[C@H]2C(=O)NC2(CC(C)(C)C2)C(=O)N1C [PP2648] | A (a compound having 10 or more and less than 20 is denoted as A) | A (a compound having 10 or more and less than 20 is denoted as A) | – | – | – | – |

| SMILES | Kd [2, 5] | IC50 [4] | Kd ([2]; SPR, Single Cycle Kinetics) | Kd ([2]; SPR, Single Cycle Kinetics, 1:1 binding model) | NRAS/KRAS (ratio of KD value with respect to GDP-bound NRAS wild-type protein to KD value with respect to KRAS) [1] | HRAS/KRAS (ratio of KD value with respect to GDP-bound HRAS wild-type protein to KD value with respect to KRAS) [3] | NRAS/KRAS (ratio of KD value for NRAS to KD value for KRAS) [1] | HRAS/KRAS (ratio of KD value for HRAS to KD value for KRAS) [3] | NRAS/KRAS (ratio of KD value for NRAS to KD value for KRAS) ([1]; KD ratio class) | HRAS/KRAS (ratio of KD value for HRAS to KD value for KRAS) ([3]; KD ratio class) |
| --- | --- | --- | --- | --- | --- | --- | --- | --- | --- | --- |
| CCC(CC)[C@H]1C(=O)N(C)[C@H](C(=O)N2CCCCC2)CC(=O)N(C)[C@@H](COC)C(=O)N[C@@H]([C@@H](C)CC)C(=O)N(C)CC(=O)N(C)[C@H]2C/C=C\CCN(C2=O)[C@@H](Cc2ccc(C(F)(F)F)cc2)C(=O)N(C)CC(=O)N[C@@H](CCc2cc(F)c(C(F)(F)F)c(F)c2)C(=O)N2C[C@H](OC(C)C)C[C@H]2C(=O)NC2(CC(C)(C)C2)C(=O)N1C [PP2608] | 1.4 nM | 53 nM | – | – | AA (a compound having 20 or more is denoted as AA) | A (a compound having 10 or more and less than 20 is denoted as A) | – | – | – | – |
